This passage reports IC50 results from US20110021531A1, “OXAZOLE DERIVATIVES USEFUL AS INHIBITORS OF FAAH” (priority 2009, published 2011).

The target in experiment [1] is T1, human FAAH (Fatty Acid Amide Hydrolase) (Homo sapiens, UniProt O00519).
T1 construct: The full length FAAH was subcloned into the mammalian expression vector, pcDEF.neo
T1 sequence (O00519 1-579): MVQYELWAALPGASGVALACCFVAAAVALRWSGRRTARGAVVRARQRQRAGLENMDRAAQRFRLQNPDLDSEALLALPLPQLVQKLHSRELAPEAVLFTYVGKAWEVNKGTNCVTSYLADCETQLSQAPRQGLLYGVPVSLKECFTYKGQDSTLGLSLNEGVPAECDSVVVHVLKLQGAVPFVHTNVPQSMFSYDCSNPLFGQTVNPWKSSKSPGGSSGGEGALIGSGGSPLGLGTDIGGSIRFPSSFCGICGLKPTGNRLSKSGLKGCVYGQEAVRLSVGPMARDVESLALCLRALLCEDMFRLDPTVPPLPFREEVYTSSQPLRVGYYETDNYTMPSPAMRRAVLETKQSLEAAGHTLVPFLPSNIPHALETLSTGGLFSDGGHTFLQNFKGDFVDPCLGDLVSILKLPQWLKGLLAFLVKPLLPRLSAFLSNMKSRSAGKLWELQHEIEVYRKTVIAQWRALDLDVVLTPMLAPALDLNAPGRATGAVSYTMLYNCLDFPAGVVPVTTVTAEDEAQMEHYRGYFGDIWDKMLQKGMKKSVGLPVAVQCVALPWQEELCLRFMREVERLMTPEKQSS
The experiment can be described thus: FAAH enzyme assay on lysate of CHO cells expressing human FAAH. The class given is biochemical. From the text: (§1) To assist in assay development stable cell lines for human, murine and rat full length FAAH were developed. Human FAAH cDNA (Accession No: NM_001441.1) was purchased from Origene (Rockville, Md.). The full length FAAH was subcloned into the mammalian expression vector, pcDEF.neo, using XbaI and EcoRI restriction sites and used for stable cell line generation.
CHO cells expressing FAAH were used to prepare either crude cell lysate or microsome fractions. To harvest cells, tissue culture media was decanted, the monolayer washed three times with Ca^++Mg^++ free PBS and cells recovered after […] in enzyme free dissociation media (Millipore Corp, Billerica, Mass.). Cells were collected by centrifuging at 2000 rpm for 15 min. and the cell pellet re-suspended with 50 mM HEPES (pH 7.4) containing 1 mM EDTA and the protease inhibitors aprotinin (1 mg/ml) and leupeptin (100 μM). The suspension was sonicated at 4° C. and the cell lysate recovered after centrifuging at 12,000×g (14,600 rpm, SS34 rotor) for 20 min at 4° C. to form a crude pellet of cell debris, nuclei, peroxisomes, lysosomes, and mitochondria; the supernatant or cell lysate was used for FAAH enzyme assay. In some cases, microsomes fractions enriched in FAAH were prepared by centrifuging the cell lysate further at 27,000 rpm (100,000×g) in SW28 rotor for 50 minutes at 4° C. The pellet containing FAAH-enriched microsomes was re-suspend in 50 mM HEPES, (pH 7.4) 1 mM EDTA, and any remaining DNA sheared by passage of material through a 23 gauge needle and aliquots of enzyme were store at −80° C. prior to use.
(§2) (American Radiolabeled Chemicals; 1 mCi/ml) with FAAH (Life Sciences (1995), 56, 1999-2005 and Journal of Pharmacology and Experimented Therapeutics (1997), 283, 729-734), Analytical. Biochemistry (2003), 318, 270-5. In addition, routine assays were performed monitoring hydrolysis of arachidonyl-7-amino-4-methylcoumarin amide (AAMCA) by following increase in fluorescence upon release of 7-amino 4-methyl coumarin (λEX=355 nm, (λEM=460 nm). Analytical. Biochemistry (2005). 343, 143-51
(§3) Assays are performed on either cell lysate or microsome fractions prepared as described or in whole cell format employing either the fluorescent substrate AAMCA (Cayman chemical, Ann Arbor, Mich.,) or ^3H-anandmaide ([ETHANOLAMINE-1-3H]American Radiolabeled Chemicals; 1 mCi/ml). The cell lysate or microsome assay is performed in Costar black wall, clear bottom plates by adding FAAH_CF10 (whole cell, cell lysate or microsome) in assay buffer (50 mM Phosphate, pH 8.0, 1 mM EDTA, 200 mM KCl, 0.2% glycerol, 0.1% fatty acid free BSA) to each well, followed by either DMSO or compound and allowed to incubate at 22-25° C. for fifteen minutes. AAMCA substrate was used to achieve a final concentration of 1 μM and reaction allowed to proceed at room temperature for 1-3 hours. Fluorescent release as a measure of FAAH activity was monitored by reading the plate in a CytoFluor Multiplate Reader (Ex: […]). Whole cell assay is conducted with cells harvested after rinsing tissue culture flasks three times with Ca^++Mg^++ free PBS, incubating for 10 min in Enzyme free dissociation media and centrifuging for 5 minutes at 1,000 rpm in table top centrifuge. Cells are resuspended in assay buffer at desired cell number in (4×10^4 cells/assay in 96-well format; 1×10^4 cells/assay in 384-well format) and assayed as described.
Alternatively, assays are performed using anandamide [ethanolamine 1-^3H] (specific activity of 10 Ci/mmol) diluted with cold anandamide to achieve a final assay concentration of 1 μM anandamide (˜50,000 cpm). Enzyme (CHO cell lysate, brain or liver homogenate) is incubated in assay buffer (50 mM Phosphate, pH 8.0, 1 mM EDTA, 200 mM KCl, 0.2% glycerol, 0.1% fatty acid free BSA) with inhibitor at 25° C. for 30 minutes. The reaction was terminated by addition of 2 volumes of chloroform:methanol (1:1) and mixed by vortexing. […]

The target in experiment [2] is T1, human FAAH (Fatty Acid Amide Hydrolase). The experiment can be described thus: FAAH whole cell assay, CHO cells expressing human FAAH. The class given is cell-based.
From the text: as §1
(§4) Murine (accession number NM_010173) and Rat FAAH (accession number NM_024132) was amplified by reverse transcriptase polymerase chain reaction (RT-PCR) from brain cDNA (BD Biosciences, San Jose, Calif.) using primers 1 and 2 or primers 1 and 3 respectively (see Table). The resulting PCR product was ligated into pCR4 TOPO and DNA sequence confirmed. The full length murine FAAH was subcloned into the mammalian expression vector, pcDEFneo using either EcoRI (murine) or KpnI and EcoRI (rat) restriction sites. Chinese hamster ovary cells (CHO) were transfected following manufacturers protocol (AMAXA). Forty eight hours post transfection, cells were trypsinized and transferred to 96 well plates in Iscove's DMEM media supplemented with 2 mM Glutamine, 10% fetal calf serum, 1 mg/ml geneticin and HT Supplement (0.1 mM sodium hypoxanthine, 0.016 mM thymidine) in order to isolate single clones. Following selection in geneticin, individual clones were selected and FAAH activity was assessed using a whole cell fluorescent anandamide assay, modified from Ramarao et al (2005). Following removal of tissue culture media cells were dislodged following addition of Cellstripper (Mediatech, Inc. Manassas, Va.) and transferred to 96 well black clear bottom assay plate, centrifuged at 1,000 rpm for 3 mins and media removed and replaced with assay buffer (50 mM Iris pH8.0, 1 mM EDTA, 0.1% fatty acid free BSA). The reaction was initiated by addition of fluorescent substrate, AMC Arachidonoyl Amide (Cayman Chemical, Ann Arbor, Mich.) to 1 μM and reaction allowed to proceed for 2 hours at room temperature. Release of fluorescence was monitored in a CytoFluor Multiplate Reader. Cells expressing the highest amount of FAAH activity were selected for study with FAAH inhibitors.
as §2, §3

Experiment [3] has as its target T2, rat FAAH (Fatty Acid Amide Hydrolase) (Rattus norvegicus, UniProt P97612).
T2 sequence (P97612 1-579): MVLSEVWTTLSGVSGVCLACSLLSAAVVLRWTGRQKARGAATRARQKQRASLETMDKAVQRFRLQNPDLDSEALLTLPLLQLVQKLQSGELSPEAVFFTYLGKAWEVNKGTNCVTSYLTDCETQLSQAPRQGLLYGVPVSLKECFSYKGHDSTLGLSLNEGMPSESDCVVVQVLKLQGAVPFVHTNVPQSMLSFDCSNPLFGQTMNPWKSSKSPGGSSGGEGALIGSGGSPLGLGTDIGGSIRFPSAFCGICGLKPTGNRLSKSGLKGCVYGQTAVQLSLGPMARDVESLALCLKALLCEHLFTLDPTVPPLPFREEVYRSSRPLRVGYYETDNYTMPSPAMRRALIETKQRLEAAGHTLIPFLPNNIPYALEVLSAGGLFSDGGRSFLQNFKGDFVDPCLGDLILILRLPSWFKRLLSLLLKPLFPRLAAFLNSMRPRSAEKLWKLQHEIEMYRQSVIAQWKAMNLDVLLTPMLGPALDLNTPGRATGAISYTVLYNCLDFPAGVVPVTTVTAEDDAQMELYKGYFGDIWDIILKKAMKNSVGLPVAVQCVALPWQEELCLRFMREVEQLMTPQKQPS
The experiment can be described thus: FAAH whole cell assay, CHO cells expressing rat FAAH. Format: cell-based.
From the text: as §1, §4, §2, §3

With `CC(C)(O)c1ncc(-c2nc(-c3ccc(F)cc3)oc2Sc2ccc(Cl)cn2)cn1` [Ex 74, 2-(5-{5-[(5-Chloropyridin-2-yl)sulfanyl]-2-(4-fluorophenyl)-1,3-oxazol-4-yl}pyrimidin-2-yl)propan-2-ol], the results for the IC50 in experiment [1], in experiment [2] and in experiment [3] were 8 nM, 37 nM and 34 nM, respectively.
As to `CC(C)(O)c1ccc(-c2nc(-c3ccc(F)cc3)oc2Sc2ccc(Cl)cn2)cn1` [Ex 12, 2-{5-[5-[(5-Chloropyridin-2-yl)thio]-2-(4-fluorophenyl)-1,3-oxazol-4-yl]pyridin-2-yl}propan-2-ol], the results for the IC50 in experiment [1], in experiment [2] and in experiment [3] were 19 nM, 25 nM and 13 nM, respectively.
In the same order, the values of `CC(C)(O)c1ccc(-c2nc(-c3ccc(F)c(F)c3)oc2Sc2ccc(Cl)cn2)cn1` [Ex 35] are 27 nM, 37 nM and 21 nM.
On to `CC(C)(O)c1ccc(-c2nc(C3CC3)oc2Sc2ccc(Cl)cn2)cn1` [Ex 90, 2-(5-{5-[(5-Chloropyridin-2-yl)sulfanyl]-2-cyclopropyl-1,3-oxazol-4-yl}pyridin-2-yl)propan-2-ol], for which the half-maximal inhibitory concentration (IC50) in experiment [1] worked out at 46 nM; in experiment [2] it was 1000 nM; in experiment [3] it was 247 nM.
In the same order, the values of `CS(=O)(=O)c1ccc(-c2nc(-c3ccc(F)cc3)oc2Sc2ncc(Cl)cn2)cn1` [Ex 107, 5-Chloro-2-({2-(4-fluorophenyl)-4-[6-(methylsulfonyl)pyridin-3-yl]-1,3-oxazol-5-yl}sulfanyl)pyrimidine] are 24 nM, 91 nM and 11 nM.
As for `CCOC(=O)c1cc(-c2nc(-c3ccc(F)cc3)oc2Sc2ccc(Cl)cn2)on1` [Ex 97, Ethyl 5-{5-[(5-chloropyridin-2-yl)sulfanyl]-2-(4-fluorophenyl)-1,3-oxazol-4-yl}isoxazole-3-carboxylate], the results for the IC50 in experiment [1] and in experiment [3] were 20 nM and 10 nM, respectively.
For `CC(C)(O)c1cc(-c2nc(-c3ccc(F)cc3)oc2Sc2ccc(Cl)cn2)on1` [Ex 98, 2-(5-{5-[(5-Chloropyridin-2-yl)sulfanyl]-2-(4-fluorophenyl)-1,3-oxazol-4-yl}isoxazol-3-yl)propan-2-ol], the IC50 in experiment [1] came out at 44 nM; in experiment [2], 222 nM; in experiment [3] it was 35 nM.
Consider `CC(C)(O)c1ccc(-c2nc(-c3ccc(OC(F)(F)F)cc3)oc2Sc2ccc(Cl)cn2)cn1` [Ex 68], for which the IC50 in experiment [1] worked out at 15 nM; in experiment [2], 100 nM; in experiment [3], 83 nM.
In the same order, the values of `CC(C)(O)c1ccc(-c2nc(-c3ccccc3)oc2Sc2ncc(Cl)cn2)cn1` [Ex 62] are 23 nM, 41 nM and 29 nM.
Take `CC(C)(O)c1ccc(-c2nc(-c3ccc(F)cc3)oc2Sc2ccc(F)cn2)cn1` [Ex 19]: the IC50 is 38 nM in experiment [1], 78 nM in experiment [2] and 18 nM in experiment [3].
Take `CC(C)(O)c1ccc(-c2nc(Cc3ccc(F)cc3)oc2Sc2ccc(Cl)cn2)cn1` [Ex 123, 2-(5-{5-[(5-Chloropyridin-2-yl)sulfanyl]-2-(4-fluorobenzyl)-1,3-oxazol-4-yl}pyridin-2-yl)propan-2-ol]: the IC50 was 74 nM in experiment [1], 510 nM in experiment [2] and 286 nM in experiment [3].
Take `COc1ccc(Sc2oc(-c3ccc(F)cc3)nc2-c2ccc(C(C)(C)O)nc2)c(F)c1` [Ex 65]: the IC50 was found to be 27 nM in experiment [1], 29 nM in experiment [2] and 21 nM in experiment [3].
For `Cc1ccc(-c2nc(-c3ccc(C(C)(C)O)nc3)c(Sc3ccc(Cl)cn3)o2)cc1` [Ex 59], the half-maximal inhibitory concentration (IC50) in experiment [1] was 20 nM; in experiment [2] it was 67 nM; in experiment [3] it was 40 nM.
As to `CS(=O)(=O)c1ccc(-c2nc(-c3ccc(F)cc3)oc2Sc2ccc(Cl)cn2)cn1` [Ex 102, 5-Chloro-2-({2-(4-fluorophenyl)-4-[6-(methylsulfonyl)pyridin-3-yl]-1,3-oxazol-5-yl}sulfanyl)pyridine], the IC50 is 12 nM in experiment [1], 35 nM in experiment [2] and 17 nM in experiment [3].
